What was measured:
S-type amylase = biological target: T1, S-type amylase (Homo sapiens, UniProt P0DUB6); assay: S-type amylase activity assay of serum by subtraction (reagent F minus reagent G); type: biochemical; settings: for S-type amylase activity value: change in absorbance with reagent F minus reagent G
T1 construct: Serum (1, 2 or 3); from tissue; host or cells: serum
T1 sequence (P0DUB6 16-511): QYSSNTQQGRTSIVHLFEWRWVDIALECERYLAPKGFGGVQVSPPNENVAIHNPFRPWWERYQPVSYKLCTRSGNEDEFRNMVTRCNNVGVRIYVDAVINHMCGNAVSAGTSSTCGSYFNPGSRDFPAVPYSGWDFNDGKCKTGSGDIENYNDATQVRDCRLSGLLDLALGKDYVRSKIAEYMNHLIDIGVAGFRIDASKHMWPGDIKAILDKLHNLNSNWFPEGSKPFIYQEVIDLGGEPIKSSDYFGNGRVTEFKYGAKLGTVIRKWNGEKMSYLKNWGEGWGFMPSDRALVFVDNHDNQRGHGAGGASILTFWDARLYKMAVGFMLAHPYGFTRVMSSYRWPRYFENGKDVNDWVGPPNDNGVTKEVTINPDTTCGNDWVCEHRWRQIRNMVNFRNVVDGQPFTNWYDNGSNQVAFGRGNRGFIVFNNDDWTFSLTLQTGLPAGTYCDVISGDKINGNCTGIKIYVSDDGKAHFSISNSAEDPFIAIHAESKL
Method: Potassium thiocyanate 140 mM
(§1) Substrate (GalG2CNP (Example) or G3CNP (Comparative Example)) 2.6 mM
S-type amylase inhibitory antibody 88E8 (manufactured by Roche Diagnostics K.K.) 15 mg/L
S-type amylase inhibitory antibody 66C7 (manufactured by Roche Diagnostics K.K.) 1.25 mg/L
(1) Distilled Water(Blank)
Each of the above-mentioned reagents (0.05 mL) was added to the above reagent F (3 mL) and the mixtures were left standing at 37° C. for 3 minutes. Then, change in absorbance at 405 nm was assayed and change in absorbance per minute was calculated (change in absorbance a). The same procedure was repeated using reagent G and change in absorbance per minute was calculated (change in absorbance b). Then, change in absorbance b was subtracted from change in absorbance a to give change in absorbance c, which was converted to S-type amylase activity value at this composition using the molecular extinction coefficient of CNP.

[1] = biological target: T2, P-type amylase (Calibzyme P) (Homo sapiens, UniProt P04746); assay: amylase isozyme activity assay with potassium thiocyanate as activator, P-type amylase sample; type: biochemical; settings: for Change in absorbance, Containing Antibody (Composition A) / Change in absorbance, Without antibody (Composition B) / Relative sensitivity / Percent residual enzyme activity: P-type amylase; for Relative sensitivity: G3CNP at 900 mM = 100; for Percent residual enzyme activity: composition A/B
T2 construct: purchased International Reagents Corporation Calibzyme P
T2 sequence (P04746 16-511): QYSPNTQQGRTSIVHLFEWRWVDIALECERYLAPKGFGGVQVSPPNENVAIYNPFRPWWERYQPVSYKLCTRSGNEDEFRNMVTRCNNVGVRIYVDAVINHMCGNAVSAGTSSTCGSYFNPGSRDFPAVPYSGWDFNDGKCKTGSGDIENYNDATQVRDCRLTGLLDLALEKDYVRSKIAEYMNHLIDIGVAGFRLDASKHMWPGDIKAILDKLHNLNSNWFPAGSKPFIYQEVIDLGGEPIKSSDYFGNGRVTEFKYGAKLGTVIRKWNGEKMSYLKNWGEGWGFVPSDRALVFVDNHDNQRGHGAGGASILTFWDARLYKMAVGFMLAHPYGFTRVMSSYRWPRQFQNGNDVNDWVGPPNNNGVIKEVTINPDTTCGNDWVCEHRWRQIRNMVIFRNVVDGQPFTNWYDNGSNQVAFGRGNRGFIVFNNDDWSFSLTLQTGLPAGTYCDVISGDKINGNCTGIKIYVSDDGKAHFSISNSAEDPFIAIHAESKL
Method: A reagent for amylase isozyme activity assay comprising each composition as mentioned below was prepared. In the Table showing the composition, GalG2CNP (Example) is 2-chloro-4-nitrophenyl 4-O-β-D-galactopyranosylmaltoside, and G3CNP (Comparative Example) is 2-chloro-4-nitrophenylmaltotrioside.
S-type amylase-inhibiting antibody 88E8 (manufactured by Roche Diagnostics K.K.) 20 mg/L
S-type amylase-inhibiting antibody 66C7 (manufactured by Roche Diagnostics K.K.) 5 mg/L
as §1
(2) P-type Amylase (Calibzyme P, Manufactured by International Reagents Corporation)
Each sample (0.05 mL was added to the reagent A (3 mL) and the reagent B (3 mL), respectively, and the mixtures were allowed to stand at 37° C. for 3 minutes. Then, the change in absorbance at 405 nm was assayed, and the change in absorbance per minute was calculated. The results are shown in Tables 1 and 2.
In the Tables, P is the case where P-type amylase was used as the sample, and S is the case where S-type amylase was used.
Percent residual enzyme activity (%)=(change in absorbance of composition A)/(change in absorbance of composition B)×100
Relative sensitivity (%)=(change in absorbance of composition B)/(change in absorbance of Comparative Example wherein potassium thiocyanate was 900 mM)×100

O=[N+]([O-])c1ccc(O[C@H]2O[C@H](CO)[C@@H](O[C@H]3O[C@H](CO)[C@@H](O[C@H]4O[C@H](CO)[C@@H](O)[C@H](O)[C@H]4O)[C@H](O)[C@H]3O)[C@H](O)[C@H]2O)c(Cl)c1 [Example G3CNP, 2-chloro-4-nitrophenylmaltotrioside, reference compound]
S-type amylase activity value (S-type amylase; Serum 1): 23.4 IU/L | S-type amylase activity value (S-type amylase; Serum 2): 87.5 IU/L | S-type amylase activity value (S-type amylase; Serum 3): 71.9 IU/L | Blank, change in absorbance per minute (S-type amylase; distilled water as sample, compositions F and G): 0.0006 ABS/min | Change in absorbance, Containing Antibody (Composition A) ([1]; potassium thiocyanate 0 mM): 9.3 mABS/min | Change in absorbance, Without antibody (Composition B) ([1]; potassium thiocyanate 0 mM): 9.3 mABS/min | Relative sensitivity ([1]; potassium thiocyanate 0 mM): 19.4% | Percent residual enzyme activity ([1]; potassium thiocyanate 0 mM): 100.0% | Change in absorbance, Containing Antibody (Composition A) ([1]; potassium thiocyanate 50 mM): 17.1 mABS/min | Change in absorbance, Without antibody (Composition B) ([1]; potassium thiocyanate 50 mM): 17.7 mABS/min | Relative sensitivity ([1]; potassium thiocyanate 50 mM): 37.0% | Percent residual enzyme activity ([1]; potassium thiocyanate 50 mM): 96.6% | Change in absorbance, Containing Antibody (Composition A) ([1]; potassium thiocyanate 100 mM): 22.3 mABS/min | Change in absorbance, Without antibody (Composition B) ([1]; potassium thiocyanate 100 mM): 23.4 mABS/min | Relative sensitivity ([1]; potassium thiocyanate 100 mM): 48.9% | Percent residual enzyme activity ([1]; potassium thiocyanate 100 mM): 95.3% | Change in absorbance, Containing Antibody (Composition A) ([1]; potassium thiocyanate 140 mM): 26.1 mABS/min | Change in absorbance, Without antibody (Composition B) ([1]; potassium thiocyanate 140 mM): 27.2 mABS/min | Relative sensitivity ([1]; potassium thiocyanate 140 mM): 56.8% | Percent residual enzyme activity ([1]; potassium thiocyanate 140 mM): 96.0% | Change in absorbance, Containing Antibody (Composition A) ([1]; potassium thiocyanate 200 mM): 30.3 mABS/min | Change in absorbance, Without antibody (Composition B) ([1]; potassium thiocyanate 200 mM): 31.6 mABS/min | Relative sensitivity ([1]; potassium thiocyanate 200 mM): 66.0% | Percent residual enzyme activity ([1]; potassium thiocyanate 200 mM): 95.9% | Change in absorbance, Containing Antibody (Composition A) ([1]; potassium thiocyanate 300 mM): 37.3 mABS/min | Change in absorbance, Without antibody (Composition B) ([1]; potassium thiocyanate 300 mM): 39.3 mABS/min | Relative sensitivity ([1]; potassium thiocyanate 300 mM): 82.0% | Percent residual enzyme activity ([1]; potassium thiocyanate 300 mM): 94.9% | Change in absorbance, Containing Antibody (Composition A) ([1]; potassium thiocyanate 400 mM): 42.6 mABS/min | Change in absorbance, Without antibody (Composition B) ([1]; potassium thiocyanate 400 mM): 43.7 mABS/min | Relative sensitivity ([1]; potassium thiocyanate 400 mM): 91.2% | Percent residual enzyme activity ([1]; potassium thiocyanate 400 mM): 97.5% | Change in absorbance, Containing Antibody (Composition A) ([1]; potassium thiocyanate 500 mM): 46.6 mABS/min | Change in absorbance, Without antibody (Composition B) ([1]; potassium thiocyanate 500 mM): 46.7 mABS/min | Relative sensitivity ([1]; potassium thiocyanate 500 mM): 97.5% | Percent residual enzyme activity ([1]; potassium thiocyanate 500 mM): 99.8% | Change in absorbance, Containing Antibody (Composition A) ([1]; potassium thiocyanate 600 mM): 48.1 mABS/min | Change in absorbance, Without antibody (Composition B) ([1]; potassium thiocyanate 600 mM): 47.5 mABS/min | Relative sensitivity ([1]; potassium thiocyanate 600 mM): 99.2% | Percent residual enzyme activity ([1]; potassium thiocyanate 600 mM): 101.3% | Change in absorbance, Containing Antibody (Composition A) ([1]; potassium thiocyanate 700 mM): 49.9 mABS/min | Change in absorbance, Without antibody (Composition B) ([1]; potassium thiocyanate 700 mM): 49.4 mABS/min | Relative sensitivity ([1]; potassium thiocyanate 700 mM): 103.1% | Percent residual enzyme activity ([1]; potassium thiocyanate 700 mM): 101.0% | Change in absorbance, Containing Antibody (Composition A) ([1]; potassium thiocyanate 800 mM): 49.8 mABS/min | Change in absorbance, Without antibody (Composition B) ([1]; potassium thiocyanate 800 mM): 48.8 mABS/min | Relative sensitivity ([1]; potassium thiocyanate 800 mM): 101.9% | Percent residual enzyme activity ([1]; potassium thiocyanate 800 mM): 102.0% | Change in absorbance, Containing Antibody (Composition A) ([1]; potassium thiocyanate 900 mM): 48.6 mABS/min | Change in absorbance, Without antibody (Composition B) ([1]; potassium thiocyanate 900 mM): 47.9 mABS/min | Relative sensitivity ([1]; potassium thiocyanate 900 mM): 100.0% | Percent residual enzyme activity ([1]; potassium thiocyanate 900 mM): 101.5% | relative sensitivity of P-type amylase as multiple of the standard sensitivity ([1]; potassium thiocyanate 200 mM, standard = G3CNP at 900 mM): about ⅔

Source: patent US6350585B1, “Reagent for assay of amylase isozyme activity” (priority 1998, dated 2002)
